Results from patent US20070254887A1, “Pharmaceutical Composition for Transdermal Administration of Perospirone” (priority 2004, published 2007).
Where a name gives a salt, the structure may show the parent alone.

What was measured:
antiserotonin activity = conditions: rat; cited from earlier work
[1] = test system: tryptamine-induced clonic seizures of forepaws; assay: Antiserotonin activities in rat tryptamine-induced clonic seizures of forepaws model; assay type: in vivo, SD rats; conditions: for Efficacy (positive numbers/total numbers): placebo tape 1 cm × 1 cm
Experimental: Antiserotonin activities of the perospirone tape prepared in Example 14 (Formulation 10) and the perospirone tape prepared in Example 15 (Formulation 11) were assessed in a rat tryptamine-induced clonic seizures of forepaws model. The test was carried out according to the description of Jpn. J. Pharmacol. 53, 321-329 (1990).
Specifically, 7-week-old SD rats were dehaired the back on the day before the test, the tapes were patched on the back, and further water was administered orally in an amount of 5 ml/Kg. After the patching of tapes, a tryptamine hydrochloride was administered via tail veins in a dose of 40 mg/Kg at predetermined times as assessment times, and appearance of a clonic seizures of forepaws was observed.
7-Week-old SD rats were dehaired the back on the day before the test, patched with the placebo tape (Reference Formulation 1) containing no perospirone prepared in Reference Example 1 on the back, and administered orally perospirone hydrochloride hydrate in a dose of 3 mg/Kg or 0.5 mg/Kg. After administrations, a tryptamine hydrochloride was administered via tail veins in a dose of 40 mg/Kg at predetermined times as assessment times. An inhibitory effect of a tryptamine-induced behavior was determined in the same manner as Experiment 1.

[2] = test system: apomorphine-induced stereotypy; assay: Antidopaminergic activities in rat apomorphine-induced stereotypy model; assay type: in vivo, SD rats; conditions: for Efficacy (positive numbers/total numbers): placebo tape 1 cm × 1 cm
Experimental: […]. The test was carried out according to the description of Jpn. J. Pharmacol. 53, 321-329 (1990).
Specifically, 7-week-old SD rats were dehaired the back on the day before the test, patched the tapes on the back, and further water was administered orally in an amount 5 ml/Kg. After the patching, an apomorphine hydrochloride was administered via tail veins in a dose of 1.25 mg/Kg at predetermined times as assessment times, and stereotypy was observed.
7-Week-old SD rats were dehaired the back on the day before the test, patched the placebo tape (Reference Formulation 1) containing no perospirone prepared in Reference Example 1 on the back, and administered orally perospirone hydrochloride hydrate in a dose of 10 mg/Kg or 2 mg/Kg. Thereafter, an apomorphine hydrochloride was administered via tail veins in a dose of 1.25 mg/Kg at predetermined times as assessment times. An inhibitory effect of an apomorphine-induced behavior was determined in the same manner as Experiment 2.

[3] = Blood kinetics assessment: serum concentrations of perospirone and ID-15036 after transdermal or oral administration; assay type: in vivo, SD male rats; conditions: rat, oral administration, first measurement point (FIG. 5)
Experimental: 7-Week-old SD male rats were anesthetized and dehaired the abdomen. The rats were administered with transdermal formulations Formulations 1 to 8 in the sites of the dehaired abdomen and constantly collected blood, and serums were separated. The serums were partitioned and extracted with n-hexane-chloroform (7:3) and about 0.0005M aqueous sodium hydroxide solution, and the organic layers were evaporated and dried to solids. The resulting solids were dissolved, and serum concentrations of perospirone and its main metabolite ID-15036 were determined by quantification via reverse phase high performance liquid chromatography. […]
7-Week-old SD male rats were administered orally with 10 mg/kg of a solution of perospirone hydrochloride hydrate in a distilled water for injection in a concentration of 2 mg/ml, and the blood was collected with lapse of time. Serum concentrations of perospirone and the main metabolite ID-15036 were determined in the same manner as Experiment 3. […]

For `O=C1C2CCCCC2(O)C(=O)N1CCCCN1CCN(c2nsc3ccccc23)CC1` (centres unmarked) [ID-15036], the “antiserotonin activity compared to perospirone” value (antiserotonin activity) is listed as “about ⅛”.

In the case of `O=C1[C@H]2CCCC[C@H]2C(=O)N1CCCCN1CCN(c2nsc3ccccc23)CC1` [perospirone hydrochloride hydrate], the “Efficacy (positive numbers/total numbers)” value ([1]; oral 0.5 mg/Kg, 1 hour after administration) is reported as 0/5, the “Efficacy (positive numbers/total numbers)” value ([1]; oral 3 mg/Kg, 1 hour after administration) is reported as 3/5 and the “Efficacy (positive numbers/total numbers)” value ([1]; oral 3 mg/Kg, 10 hours after administration) is reported as 0/7. For the same compound, the “Efficacy (positive numbers/total numbers)” value ([2]; oral 2 mg/Kg, 1 hour after administration) was 2/5, the “Efficacy (positive numbers/total numbers)” value ([2]; oral 10 mg/Kg, 1 hour after administration) was 5/5 and the “Efficacy (positive numbers/total numbers)” value ([2]; oral 10 mg/Kg, 10 hours after administration) was 4/5. The “Efficacy (positive numbers/total numbers)” value ([2]; oral 10 mg/Kg, 48 hours after administration) was 0/5 and the “time of maximum serum concentrations after administration” value [3] was 30 min.

In the case of `O=C1[C@H]2CCCC[C@H]2C(=O)N1CCCCN1CCN(c2nsc3ccccc23)CC1` [perospirone, cis-N-[4-[4-(1,2-benzisothiazol-3-yl)-1-piperazinyl]butyl]cyclohexane-1,2-dicarboximide], the antiserotonin activities ([1]; oral administration, group of 3 mg/Kg) is reported as “antiserotonin activities could not be recognized 10 hours after administration” and the antidopaminergic activities ([2]; oral administration) is reported as “showed antidopaminergic activities 1 and 10 hours after administration but not 48 hours after administration”.
